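In this assay, cells in 96-well plates receive the compound at five concentrations for 48 hours. Endpoints are linearly interpolated between the surrounding concentrations. Definition used: TGI = concentration required for complete inhibition of growth.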 Peptide text beside a SMILES is read from it. * marks the point of attachment. Boc = CC(C)(C)OC(=O)*
Experiments:
Test in all cases: NCI-60 cell line screen, 48 h
[1] = test system: EKVX NSCLC
[2] = test system: SN12C renal
[3] = test system: OVCAR-8 ovarian
[4] = test system: SK-MEL-2 melanoma
[5] = test system: BT-549 breast
[6] = test system: OVCAR-5 ovarian
[7] = test system: HS 578T breast
[8] = test system: HOP-92 NSCLC
[9] = test system: SR leukemia
[10] = test system: NCI-H23 lung

SMILES	TGI [1] [µM]	TGI [2] [µM]	TGI [3] [µM]	TGI [4] [µM]	TGI [5] [µM]	TGI [6] [µM]	TGI [7] [µM]	TGI [8] [µM]	TGI [9] [µM]	TGI [10] [µM]
Cc1cc(S(=O)(=O)NC(=NCC(=O)NN)NN)c(S)cc1Cl	> 10	> 10	> 10	> 10	> 10	> 10	> 10	> 10	> 10	> 10
CC(=O)Nc1ncc2c(n1)-c1ccccc1OC2	> 100	> 100	> 100	> 100	> 100	> 100	94.4	> 100	> 100	> 100
C[C@@H](C[C@@H](O)[C@H](O)C(C)(C)O)[C@H]1CC=C2[C@]3(C)[C@H](O)C[C@H]4C(C)(C)[C@H](O)CC[C@]4(C)[C@H]3CC[C@@]21C	26.1	31	33.8	34.9	31.1	33.4	50.4	27.1	> 100	33.6
CSCCC(NC(=O)C(CC(C)C)NC(=O)CNC(=O)OC(C)(C)C)C(=O)N(C)C (stereo not drawn) (Boc-Gly-Leu-Met-NMe2; configuration not given here)	> 100	> 100	> 100	> 100	> 100	> 100	> 100	> 100	> 100	> 100

Reference: PubChem BioAssay (NCI)
